Experimental data reported in patent publication US4604239A, “Antibiotics” (Eli Lilly and Company, priority 1985, dated 1986).
Read-outs that look alike come from different tables or passages of the source.

Tests used:
Staphylococcus aureus = assay: agar-dilution MIC; assay type: cell-based; settings: in µg/mL
Hemophilus influenzae = assay: agar-dilution MIC; assay type: cell-based; settings: Table 17
Bacteroides fragilis = assay: agar-dilution MIC; assay type: cell-based
Description: (§1) The agar-dilution procedure described by the International Collaborative study (ICS) group was used to determine the minimum inhibitory concentrations (MIC's).

[1] = test system: Staphylococcus epidermidis; assay: agar-dilution MIC; assay type: cell-based; settings: Staphylococcus epidermidis EPI1; Table 17
Description: as §1

Streptococcus pneumoniae = assay: agar-dilution MIC; assay type: cell-based; settings: Streptococcus pneumoniae Park I; Table 17
Description: as §1

Streptococcus pyogenes = assay: agar-dilution MIC; assay type: cell-based; settings: Streptococcus pyogenes C203; Table 17
Description: as §1

[2] = test system: Streptococcus sp. (Group D); assay: agar-dilution MIC; assay type: cell-based; settings: Table 17
Description: as §1

Bacteroides corrodens = assay: agar-dilution MIC; assay type: cell-based; settings: B. corrodens 1874; 24-hour; Table 12
Description: (§2) The A41030 antibiotics, factors A, B, and C, are active against a genus of anaerobic bacteria identified as Bacteroides sp., the 24-hour MIC values being determined by the agar-dilution method, and are set forth in Table 12, which follows.

Bacteroides vulgatis = assay: agar-dilution MIC; assay type: cell-based; settings: B. vulgatis 1563; 24-hour; Table 12
Description: as §2

[3] = test system: Bacteroides thetaiotaomicron; assay type: cell-based
Description: as §1

Clostridium difficile = assay type: cell-based
Clostridium perfringens = assay type: cell-based; settings: Clostridium perfringens 81; Table 14
Clostridium septicum = assay: agar-dilution MIC; assay type: cell-based; settings: Clostridium septicum 1128; Table 14
[4] = test system: Peptostreptococcus anaerobius; assay: agar-dilution MIC; assay type: cell-based
[5] = test system: Bacteroides melaninogenicus; assay: agar-dilution MIC; assay type: cell-based; settings: Bacteroides melaninogenicus 2736; Table 14
Fusobacterium symbiosum = assay: agar-dilution MIC; assay type: cell-based; settings: Fusobacterium symbiosum 1470; Table 14
[6] = test system: Fusobacterium necrophorum; assay: agar-dilution MIC; assay type: cell-based; settings: Fusobacterium necrophorum 6054A; Table 14
Staph. aureus = assay: experimental bacterial infection in mice; assay type: in vivo; settings: two doses subcutaneously
Experimental: All of the A41030 factors tested have shown in vivo antimicrobial activity against experimental bacterial infections. When two doses of test compound were administered subcutaneously to mice in illustrative infections, the activity observed is measured as an ED50 value [effective dose in mg./kg. to protect fifty percent of the test animals: See Warren Wick, et al., J. Bacteriol. 81, 233-235 (1961)].

S. pyogenes = assay: experimental bacterial infection in mice; assay type: in vivo; settings: against S. pyogenes in mice; oral
electrometric titration = assay type: physicochemical; settings: electrometric titration in 66% dimethylformamide in water
Description: Antibiotic A41030 factor A is a white, crystalline solid.

solubility = assay type: physicochemical
Peptococcus prevoti = assay: agar-dilution MIC; assay type: cell-based

## A41030 factor C
Staphylococcus aureus
  MIC: 1
Hemophilus influenzae; Haemophilus influenzae 251
  MIC: 4 µg/mL
Hemophilus influenzae; Haemophilus influenzae Brun
  MIC: 16 µg/mL
Bacteroides fragilis; B. fragilis 2, 24-hour, Table 12
  MIC: 32 µg/mL
Bacteroides fragilis; B. fragilis 9, 24-hour, Table 12
  MIC: 32 µg/mL
Bacteroides fragilis; B. fragilis 103, 24-hour, Table 12
  MIC: 32 µg/mL
Bacteroides fragilis; B. fragilis 104, 24-hour, Table 12
  MIC: 32 µg/mL
Bacteroides fragilis; B. fragilis 106, 24-hour, Table 12
  MIC: 32 µg/mL
Bacteroides fragilis; B. fragilis 107, 24-hour, Table 12
  MIC: 32 µg/mL
Bacteroides fragilis; B. fragilis 108, 24-hour, Table 12
  MIC: 64 µg/mL
Bacteroides fragilis; B. fragilis 110, 24-hour, Table 12
  MIC: 64 µg/mL
Bacteroides fragilis; B. fragilis 111, 24-hour, Table 12
  MIC: 32 µg/mL
Bacteroides fragilis; B. fragilis 112, 24-hour, Table 12
  MIC: 32 µg/mL
Bacteroides fragilis; B. fragilis 113, 24-hour, Table 12
  MIC: 32 µg/mL
Bacteroides fragilis; B. fragilis 1451, 24-hour, Table 12
  MIC: 64 µg/mL
Bacteroides fragilis; B. fragilis 1470, 24-hour, Table 12
  MIC: 64 µg/mL
Bacteroides fragilis; B. fragilis 1877, 24-hour, Table 12
  MIC: 32 µg/mL
Bacteroides fragilis; B. fragilis 9032, 24-hour, Table 12
  MIC: 32 µg/mL
Bacteroides fragilis; Bacteroides fragilis 1877, Table 14
  MIC: 16 µg/mL
Bacteroides fragilis; Bacteroides fragilis 1936B, Table 14
  MIC: 32 µg/mL
[1]
  MIC: 0.5 µg/mL
Streptococcus pneumoniae
  MIC: 1 µg/mL
Streptococcus pyogenes
  MIC: 1 µg/mL
[2]; Streptococcus sp. Group D 9960
  MIC: 4 µg/mL
[2]; Streptococcus sp. Group D X66
  MIC: 2 µg/mL
Bacteroides corrodens
  MIC: 32 µg/mL
Bacteroides vulgatis
  MIC: 32 µg/mL
[3]; B. thetaiotaomicron 1438, 24-hour, Table 12
  MIC: 32 µg/mL
[3]; Bacteroides thetaiotaomicron 1438, Table 14
  MIC: 64 µg/mL
Clostridium difficile; Clostridium difficile 78, Table 16
  MIC: 1.0 µg/mL
Clostridium difficile; Clostridium difficile 107B, Table 16
  MIC: 1.0 µg/mL
Clostridium difficile; Clostridium difficile 111F, Table 16
  MIC: 2 µg/mL
Clostridium difficile; Clostridium difficile 1153, Table 16
  MIC: 2 µg/mL
Clostridium difficile; Clostridium difficile 2634, Table 16
  MIC: 2 µg/mL
Clostridium difficile; Clostridium difficile 2994, Table 14
  MIC: 16 µg/mL
Clostridium difficile; Clostridium difficile 3424-5B, Table 16
  MIC: 1.0 µg/mL
Clostridium difficile; Clostridium difficile 3816, Table 16
  MIC: 2 µg/mL
Clostridium difficile; Clostridium difficile 3950D, Table 16
  MIC: 2 µg/mL
Clostridium difficile; Clostridium difficile 6890, Table 16
  MIC: 2 µg/mL
Clostridium difficile; Clostridium difficile 8484, Table 16
  MIC: 1.0 µg/mL
Clostridium difficile; Clostridium difficile A-194, Table 16
  MIC: 2 µg/mL
Clostridium difficile; Clostridium difficile A-195, Table 16
  MIC: 1.0 µg/mL
Clostridium difficile; Clostridium difficile A-196, Table 16
  MIC: 2 µg/mL
Clostridium difficile; Clostridium difficile A-279, Table 16
  MIC: 2 µg/mL
Clostridium difficile; Clostridium difficile A-280, Table 16
  MIC: 1.0 µg/mL
Clostridium difficile; Clostridium difficile A-281, Table 16
  MIC: 2 µg/mL
Clostridium difficile; Clostridium difficile WAL-2112, Table 16
  MIC: 2 µg/mL
Clostridium difficile; Clostridium difficile WAL-3657, Table 16
  MIC: 2 µg/mL
Clostridium difficile; Clostridium difficile WAL-4268, Table 16
  MIC: 1.0 µg/mL
Clostridium perfringens
  MIC: 1.0 µg/mL
Clostridium septicum
  MIC: 8 µg/mL
[4]; Peptostreptococcus anaerobius 1428, Table 14
  MIC: ≤ 0.25 µg/mL
[4]; Ps. anaerobius 52, Table 15
  MIC: 0.25 µg/mL
[4]; Ps. anaerobius 59, Table 15
  MIC: 0.25 µg/mL
[4]; Ps. anaerobius 1418, Table 15
  MIC: ≤ 0.03 µg/mL
[4]; Ps. anaerobius 1428, Table 15
  MIC: 0.25 µg/mL
[4]; Ps. anaerobius 1451, Table 15
  MIC: 0.25 µg/mL
[4]; Ps. anaerobius 1477, Table 15
  MIC: 0.25 µg/mL
[5]
  MIC: 4 µg/mL
Fusobacterium symbiosum
  MIC: 1.0 µg/mL
[6]
  MIC: 16 µg/mL
Staph. aureus
  ED50: < 0.43 mg/kg
S. pyogenes
  in vivo oral activity: > 300 mg./kg. X 2
Electrometric titration
  possibly additional pKa's: > 10
solubility
  solubility (solvents): soluble in the same solvents as factor A
Peptococcus prevoti; Pc. prevoti 1281, Table 15
  MIC: 1.0 µg/mL
Peptococcus prevoti; Peptococcus prevoti 1281, Table 14
  MIC: ≤ 0.25 µg/mL
